Series [1] is described as follows: Pharmacokinetic study in mice, oral. The class given is in vivo, C57BL/6J mice. To be noted: mouse plasma, mean ± SD, n = 3.
Protocol: Male C57BL/6J mice (Beijing Huafukang Biotechnology Co., Ltd, Beijing, China) were selected at 6–8 weeks for the experiment. […] About 50–60 μL of blood and tissue were isolated in anticoagulation tubes at 15, 30 min, 1, 2, 4, 6, and 8 h after administration, respectively, and then centrifuged at 5000 r/min for 7 min at 4°C. […] The standard solution was prepared with 7 concentrations and QC with 3. The standard and QC working solutions were added to the 96‐well plate, and the protein was precipitated by adding acetonitrile solution containing the internal standard together with the sample to be tested. After shaking for 10 min and centrifugation at 12 000 × g for 10 min, the supernatants from the 96‐well plate were analyzed by LC–MS (mobile phase: 0.1% formic acid‐water 0.1% formic acid‐acetonitrile). Raw data were imported into Phoenix WinNonlin to calculate AUC, C max, T 1/2, etc.
For a further series, the target named is CYP 2B6 (Homo sapiens, UniProt P20813). In words: CYP inhibition in vitro. The class given is in vitro ADME.
A further series deals with CYP3A4 (Homo sapiens, UniProt P08684). Briefly: CYP inhibition in vitro. To be noted: read-out: CYP3A4 (Midazolam) inhibition IC50; substrate Midazolam.
Sequence of CYP3A4 (P08684 whole entry): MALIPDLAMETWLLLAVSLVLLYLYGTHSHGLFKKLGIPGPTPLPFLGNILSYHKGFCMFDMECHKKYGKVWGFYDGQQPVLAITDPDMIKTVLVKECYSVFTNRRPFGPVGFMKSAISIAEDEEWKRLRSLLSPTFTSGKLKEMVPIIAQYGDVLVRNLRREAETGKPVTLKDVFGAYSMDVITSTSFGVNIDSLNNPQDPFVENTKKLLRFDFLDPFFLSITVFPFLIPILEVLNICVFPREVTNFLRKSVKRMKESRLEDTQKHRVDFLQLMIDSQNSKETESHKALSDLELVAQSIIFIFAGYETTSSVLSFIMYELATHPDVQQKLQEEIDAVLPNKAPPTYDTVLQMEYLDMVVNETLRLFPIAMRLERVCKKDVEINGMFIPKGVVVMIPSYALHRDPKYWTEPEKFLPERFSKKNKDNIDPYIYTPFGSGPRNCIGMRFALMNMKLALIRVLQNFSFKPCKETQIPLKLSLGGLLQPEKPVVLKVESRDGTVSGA

Sequence of CYP 2B6 (P20813 whole entry): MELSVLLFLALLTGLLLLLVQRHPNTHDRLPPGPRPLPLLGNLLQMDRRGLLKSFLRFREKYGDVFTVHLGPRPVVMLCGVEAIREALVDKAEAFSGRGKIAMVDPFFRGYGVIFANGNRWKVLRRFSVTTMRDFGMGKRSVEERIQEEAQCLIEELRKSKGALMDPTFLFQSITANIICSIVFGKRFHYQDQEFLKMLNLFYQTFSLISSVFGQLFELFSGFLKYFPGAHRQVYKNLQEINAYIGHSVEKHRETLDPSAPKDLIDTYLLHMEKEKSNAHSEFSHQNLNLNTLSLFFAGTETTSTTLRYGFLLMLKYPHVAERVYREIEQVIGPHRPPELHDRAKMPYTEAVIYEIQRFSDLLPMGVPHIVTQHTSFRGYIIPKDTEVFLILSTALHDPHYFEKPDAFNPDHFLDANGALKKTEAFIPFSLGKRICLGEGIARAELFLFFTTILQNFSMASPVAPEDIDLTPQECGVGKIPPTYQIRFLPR

By Cmax is commonly meant the maximum level reached in the sampled fluid or tissue. One may read the IC50 as the midpoint of a concentration-inhibition curve. Consider `Cc1cc(F)c(C(=O)Nc2cccc(-c3nncn3[C@H](C)C(F)(F)F)n2)cc1NC(=O)C1CC1` [CS17919], for which, in series [1] (20 mg/kg p.o.), the Cmax is given as 4039 ± 646.90 ng/mL, the “MRT0–∞” value came out at 3.96 ± 0.91 h, the “T 1/2” value is listed as 2.20 ± 0.74 h and the T max is given as 1.50 ± 0.87 h. Also, in series [1] (50 mg/kg p.o.), the Cmax is 5741 ± 1835 ng/mL, the “MRT0–∞” value was 6.43 ± 1.44 h, the “T 1/2” value was 3.50 ± 1.86 h and the T max came to 2.00 ± 0 h. The IC50 against CYP 2B6 was over 10 µM. In addition, the half-maximal inhibitory concentration (IC50) on CYP3A4 worked out at 3.02 µM.

(Values after publication PMC11798738, “Targeting ASK1 by CS17919 alleviates kidney‐ and liver‐related diseases in murine models” (Animal Models and Experimental Medicine, 2024).)
